The numbers were not newly measured in article PMC6724535 (Journal of molecular biology, 2019), which cites them from elsewhere.

Series [1] relates to E. coli expressing TetX. Conditions: E. coli expressing TetX vs wild-type E. coli.
The subject of series [2] is E. coli expressing TetK, TetA, TetB, and TetM.
For series [3], the system named is E. coli expressing AACs, ANTs, APHs and 16S rRNA ribosomal methyltransferases.
Series [4] deals with D. discoideum.

For `CN(C)[C@@H]1C(O)=C(C(N)=O)C(=O)[C@@]2(O)C(O)=C3C(=O)c4c(O)c(NC(=O)CN5CCCC5)cc(F)c4C[C@H]3C[C@@H]12` [eravacycline], the “increase in minimal inhibitory concentration (MIC) relative to wild-type E. coli” value in series [1] is listed as 64 fold. The antibacterial activity entry in series [2] is reported as “maintained nearly full antibacterial activity”.
Regarding `CN[C@@H]1[C@@H](O)[C@@H](O[C@@H]2[C@@H](O)[C@H](O[C@H]3OC(CNCCO)=CC[C@H]3N)[C@@H](N)C[C@H]2NC(=O)[C@@H](O)CCN)OC[C@]1(C)O` [plazomicin], the “activity against E. coli expressing aminoglycoside inactivating enzymes” value in series [3] (majority of canonical AACs, ANTs, and APHs) is “maintain activity”. Also, the “antibacterial activity with ribosomal methyltransferases” value in series [3] (some plasmid-encoded 16S rRNA ribosomal methyltransferases) is “completely abolish”.
As to jessenipeptin, in series [4], the “amoebicidal activity IC50” value was 4 mg/L.
